Substitutions are numbered along the chain they refer to. Ends that are not written are not given here.
Experiments:
[1] = molecular target: T1, GST-PDK1 [Ser135Ala] (Homo sapiens, UniProt O15530, S135A); test: PDK1 activity assay with T308tide; type: biochemical
T1 construct: different protein constructs, comprising the full length protein or the catalytic domain alone; made in house; host or cells: HEK293 cells (pEBG-2T-PDK1 mutant)
T1 sequence (O15530 1-556 S135A): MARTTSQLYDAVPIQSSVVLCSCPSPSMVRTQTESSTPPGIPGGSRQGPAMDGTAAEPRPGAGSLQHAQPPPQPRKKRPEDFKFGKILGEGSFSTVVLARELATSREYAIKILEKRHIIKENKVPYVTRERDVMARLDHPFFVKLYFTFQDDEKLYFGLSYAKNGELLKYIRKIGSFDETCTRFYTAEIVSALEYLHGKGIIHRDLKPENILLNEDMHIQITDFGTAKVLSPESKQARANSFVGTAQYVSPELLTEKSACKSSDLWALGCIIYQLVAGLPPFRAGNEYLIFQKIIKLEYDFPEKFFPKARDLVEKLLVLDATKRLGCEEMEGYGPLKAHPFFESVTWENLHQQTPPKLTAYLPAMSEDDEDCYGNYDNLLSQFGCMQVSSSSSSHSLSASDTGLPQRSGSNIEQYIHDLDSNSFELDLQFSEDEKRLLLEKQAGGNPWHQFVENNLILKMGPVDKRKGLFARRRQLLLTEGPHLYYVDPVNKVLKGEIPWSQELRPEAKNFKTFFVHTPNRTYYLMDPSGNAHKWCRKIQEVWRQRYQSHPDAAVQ

[2] = molecular target: T2, GST-PDK1 [Val127Thr] (Homo sapiens, UniProt O15530, V127T); test: PDK1 activity assay with T308tide; type: biochemical; settings: for AC50 / Max. activity: GST-PDK1 [Val127Thr]; for activation of PDK1 Val127Thr mutant: Val127 replaced by Thr
T2 construct: different protein constructs, comprising the full length protein or the catalytic domain alone; made in house; host or cells: HEK293 cells (pEBG-2T-PDK1 mutant)
T2 sequence (O15530 1-556 V127T): T1 sequence (O15530 1-556 S135A) with V127T, A135S

Compound | AC50 [1] | Max. activity [1] | AC50 [2] | Max. activity [2] | activation of PDK1 Val127Thr mutant [2]
O=C(O)CSC(CC(=O)c1ccc(Cl)cc1)c1ccccc1 (stereo not shown) [Compound 1] | 109 ± 33 µM | 2.82 ± 0.4 U/mg | 104 ± 58 µM | 1.69 ± 0.2 U/mg | 240%
REPRILSEEEQEMFRDFDYIADWC [PIFtide, reference compound] | 0.18 ± 0.02 µM | 3.4 ± 0.09 U/mg | 0.14 ± 0.07 µM | 2.36 ± 0.15 U/mg | 260%

From patent US20110152166A1, “METHOD OF MODULATION OF PROTEIN PHOSPHORYLATION-DEPENDENT CONFORMATIONAL TRANSITIONS WITH LOW MOLECULAR WEIGHT COMPOUNDS” (priority 2006, published 2011)
